Earlier results, collected in patent US20250000865A1, “COMPOUND FOR REDUCING URIC ACID LEVELS” (NEWSOARA BIOPHARMA CO., LTD., priority 2021, published 2025).

Details: cited from earlier work

In the case of `CCc1oc2ccccc2c1C(=O)c1cc(Br)c(O)c(Br)c1` [benbromarone, Benzbromarone], the “sUA target level reached” value (after long-term treatment) is given as less than 6 mg/dL and the side effects (in vivo) is given as “hepatotoxicity and acute liver failure”.
